“And” between values parts separate entries of the source, which are not always exact repeats. Equal entries are not always repeated.

What is called IC50 is the concentration needed to halve the response being measured. By pIC50 is commonly meant the negative decadic logarithm of the IC50, by convention in mol/L. A high value points to a low IC50. By Ki is commonly meant a dissociation constant, usually derived from enzyme kinetics or from competition with a known ligand. Higher therefore signals a looser hold on the target.

Assay [1] addresses T1, human pancreatic lipase (hPL) (Homo sapiens, UniProt P16233).
T1 sequence (P16233 17-465): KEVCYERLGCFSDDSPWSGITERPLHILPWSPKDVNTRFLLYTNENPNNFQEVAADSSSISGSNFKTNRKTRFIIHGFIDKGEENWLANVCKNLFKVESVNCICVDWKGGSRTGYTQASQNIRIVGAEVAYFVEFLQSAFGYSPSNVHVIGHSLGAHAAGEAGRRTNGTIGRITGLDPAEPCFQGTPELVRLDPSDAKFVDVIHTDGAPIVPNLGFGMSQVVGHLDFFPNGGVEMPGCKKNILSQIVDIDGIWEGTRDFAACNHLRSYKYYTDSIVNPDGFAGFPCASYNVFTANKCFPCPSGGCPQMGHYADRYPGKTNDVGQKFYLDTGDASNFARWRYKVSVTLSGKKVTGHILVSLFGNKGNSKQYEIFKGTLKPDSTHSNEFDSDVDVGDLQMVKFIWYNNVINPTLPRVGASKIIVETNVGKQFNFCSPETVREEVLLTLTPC
Put plainly: fluorescence-based hPL inhibition assay. As to conditions: 4-MUO 5 μM, 37 °C, 20 min; for IC50: pIC50, hPL-catalyzed 4-MUO hydrolysis; for pIC50: hPL-catalyzed 4-MUO hydrolysis. The class given is biochemical.

In the next assay the test system is α-glucosidase. Conditions: ref [50], [51], [52]; cited from earlier work.
Assay [2] addresses T1, human pancreatic lipase (hPL). The assay can be described thus: inhibition kinetics against hPL-catalyzed 4-MUO hydrolysis. Conditions: for Inhibition mode: Lineweaver-Burk and secondary plots. The class given is biochemical.

Turning to `O=C(O[C@@H]1Cc2c(O)cc(O)cc2O[C@@H]1c1ccc(O)c(O)c1)c1cc(O)c(O)c(O)c1` [ECG, epicatechin gallate], in assay [1], the IC50 is 162 nM. In addition, the “inhibitory effects against α-glucosidase” value in the assay on α-glucosidase was “strong inhibitory effects”.

As to `Oc1cc(O)c2c(c1)O[C@H](c1ccc(O)c(O)c1)[C@H](O)C2` [Epicatechin, epicatechin], the IC50 in assay [1] was greater than 100000 nM.

For the molecule `O=C1C[C@@H](c2ccc(O)c(O)c2)Oc2cc(O)cc(O)c21` [Eriodictyol, eriodictyol], the IC50 in assay [1] is greater than 100000 nM.

In the case of `COc1cc(/C=C/C(=O)O)ccc1O` [Ferulic acid, ferulic acid], the pIC50 in assay [1] is given as less than 4.

`O=c1c(O)c(-c2ccc(O)cc2)oc2cc(O)cc(O)c12` [Kaempferol, kaempferol] gave a half-maximal inhibitory concentration (IC50) in assay [1] of 27500 nM.

With `O=c1cc(-c2ccc(O)c(O)c2)oc2cc(O)cc(O)c12` [Luteolin, luteolin], half-maximal inhibition in assay [1] (IC50) was put at 776 nM. In addition, in the assay on α-glucosidase, the “inhibitory effects against α-glucosidase” value is on record as “strong inhibitory effects”.

On to `O=c1cc(-c2ccc(O)c(O)c2)oc2cc(O[C@@H]3O[C@H](CO)[C@@H](O)[C@H](O)[C@H]3O)cc(O)c12` [Luteolin-7-O-β-D-glucoside, luteolin-7-O-β-D-glucoside], for which the pIC50 in assay [1] is less than 4.

In the case of `O=C(OC[C@H]1O[C@@H](OC(=O)c2cc(O)c(O)c(O)c2)[C@H](OC(=O)c2cc(O)c(O)c(O)c2)[C@@H](OC(=O)c2cc(O)c(O)c(O)c2)[C@@H]1OC(=O)c1cc(O)c(O)c(O)c1)c1cc(O)c(O)c(O)c1` [PGG, 1,2,3,4,6-penta-O-galloyl-β-D-glucopyranose], 25.7 nM corresponded to half-maximal inhibition in assay [1] (IC50). In addition, the Inhibition mode entry in assay [2] was “non-competitive”. Moreover, the Ki in assay [2] (inhibition constant (Ki)) was 12 nM and < 100 nM.

Regarding `O=c1c(O)c(-c2ccc(O)c(O)c2)oc2cc(O)cc(O)c12` [Quercetin, quercetin], in the assay with α-glucosidase, the “inhibitory effects against α-glucosidase” value is listed as “strong inhibitory effects”.

`O=c1c(O[C@@H]2O[C@H](CO)[C@@H](O)[C@H](O)[C@H]2O)c(-c2ccc(O)c(O)c2)oc2cc(O)cc(O)c12` [Quercetin-3-O-glucoside, quercetin-3-O-glucoside] came in with an IC50 in assay [1] greater than 100000 nM.

In turn, `O=C(O)[C@H]1O[C@@H](Oc2c(-c3ccc(O)c(O)c3)oc3cc(O)cc(O)c3c2=O)[C@H](O)[C@@H](O)[C@@H]1O` [Quercetin-3-O-glucuronide, quercetin-3-O-glucuronide] registered a pIC50 in assay [1] of less than 4.

The molecule `C[C@@H]1O[C@@H](Oc2c(-c3ccc(O)c(O)c3)oc3cc(O)cc(O)c3c2=O)[C@H](O)[C@H](O)[C@H]1O` [Quercitrin, quercitrin] yielded an IC50 in assay [1] greater than 100000 nM.

For `C[C@@H]1O[C@@H](Oc2cc(O)c3c(=O)c(O)c(-c4ccc(O)cc4)oc3c2O)[C@H](O)[C@H](O)[C@H]1O` [Rhodionin, rhodionin], the half-maximal inhibitory concentration (IC50) in assay [1] was greater than 100000 nM.

`O=C(O)/C=C/c1ccc(O)cc1` [p-coumaric acid] came in with an IC50 in assay [1] greater than 100000 nM.

Take catechin gallate [CG]: the Inhibition mode result in assay [2] was “non-competitive”.

The values are drawn from publication PMC9463489 (Journal of Pharmaceutical Analysis, 2022).
